Reference: ChEMBL document CHEMBL4725311, “Discovery of potent, orally bioavailable in vivo efficacious antagonists of the TLR7/8 pathway” (Bioorg Med Chem Lett, 2020)

What was measured:
Toll-like receptor 7 [1] = molecular target: T1, Toll-like receptor 7 (Mus musculus, UniProt P58681); assay: Antagonist activity at TLR7 in mouse splenocytes assessed as inhibition of ssRNA40-induced IL6 production; type: cell-based, Splenocyte
T1 sequence (P58681 whole entry): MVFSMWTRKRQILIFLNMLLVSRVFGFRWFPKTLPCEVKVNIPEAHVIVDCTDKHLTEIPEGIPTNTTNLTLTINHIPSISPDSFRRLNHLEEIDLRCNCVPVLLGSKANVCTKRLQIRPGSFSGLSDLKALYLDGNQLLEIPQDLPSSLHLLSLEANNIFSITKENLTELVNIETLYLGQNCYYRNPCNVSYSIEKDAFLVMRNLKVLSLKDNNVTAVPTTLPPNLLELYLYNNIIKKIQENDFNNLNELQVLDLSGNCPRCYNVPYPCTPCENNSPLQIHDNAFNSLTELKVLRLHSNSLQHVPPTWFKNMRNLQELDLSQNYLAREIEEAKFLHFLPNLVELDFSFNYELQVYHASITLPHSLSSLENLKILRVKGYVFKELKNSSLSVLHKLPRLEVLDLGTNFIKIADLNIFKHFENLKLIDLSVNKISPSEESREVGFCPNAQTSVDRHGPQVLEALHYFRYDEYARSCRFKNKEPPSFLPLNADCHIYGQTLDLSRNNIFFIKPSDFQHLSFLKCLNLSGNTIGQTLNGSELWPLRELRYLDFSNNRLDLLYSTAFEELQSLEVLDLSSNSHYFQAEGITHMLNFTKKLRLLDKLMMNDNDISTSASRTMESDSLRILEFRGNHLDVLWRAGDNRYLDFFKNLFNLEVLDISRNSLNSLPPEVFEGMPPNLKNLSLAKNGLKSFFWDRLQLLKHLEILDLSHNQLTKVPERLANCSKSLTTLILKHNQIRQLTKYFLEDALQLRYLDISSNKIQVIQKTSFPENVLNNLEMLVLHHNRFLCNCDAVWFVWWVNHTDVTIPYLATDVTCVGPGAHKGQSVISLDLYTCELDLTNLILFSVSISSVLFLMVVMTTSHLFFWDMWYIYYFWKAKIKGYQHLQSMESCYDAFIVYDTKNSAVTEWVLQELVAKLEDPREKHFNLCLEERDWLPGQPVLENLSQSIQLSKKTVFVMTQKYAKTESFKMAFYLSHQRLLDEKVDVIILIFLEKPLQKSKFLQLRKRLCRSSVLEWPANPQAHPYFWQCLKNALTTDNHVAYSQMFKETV

Toll-like receptor 9 [2] = molecular target: T2, Toll-like receptor 9 (Homo sapiens, UniProt Q9NR96); assay: Antagonist activity at TLR9 in human PBMC assessed as inhibition of ODN2216-induced IFNalpha production; type: tissue-based
T2 sequence (Q9NR96 whole entry): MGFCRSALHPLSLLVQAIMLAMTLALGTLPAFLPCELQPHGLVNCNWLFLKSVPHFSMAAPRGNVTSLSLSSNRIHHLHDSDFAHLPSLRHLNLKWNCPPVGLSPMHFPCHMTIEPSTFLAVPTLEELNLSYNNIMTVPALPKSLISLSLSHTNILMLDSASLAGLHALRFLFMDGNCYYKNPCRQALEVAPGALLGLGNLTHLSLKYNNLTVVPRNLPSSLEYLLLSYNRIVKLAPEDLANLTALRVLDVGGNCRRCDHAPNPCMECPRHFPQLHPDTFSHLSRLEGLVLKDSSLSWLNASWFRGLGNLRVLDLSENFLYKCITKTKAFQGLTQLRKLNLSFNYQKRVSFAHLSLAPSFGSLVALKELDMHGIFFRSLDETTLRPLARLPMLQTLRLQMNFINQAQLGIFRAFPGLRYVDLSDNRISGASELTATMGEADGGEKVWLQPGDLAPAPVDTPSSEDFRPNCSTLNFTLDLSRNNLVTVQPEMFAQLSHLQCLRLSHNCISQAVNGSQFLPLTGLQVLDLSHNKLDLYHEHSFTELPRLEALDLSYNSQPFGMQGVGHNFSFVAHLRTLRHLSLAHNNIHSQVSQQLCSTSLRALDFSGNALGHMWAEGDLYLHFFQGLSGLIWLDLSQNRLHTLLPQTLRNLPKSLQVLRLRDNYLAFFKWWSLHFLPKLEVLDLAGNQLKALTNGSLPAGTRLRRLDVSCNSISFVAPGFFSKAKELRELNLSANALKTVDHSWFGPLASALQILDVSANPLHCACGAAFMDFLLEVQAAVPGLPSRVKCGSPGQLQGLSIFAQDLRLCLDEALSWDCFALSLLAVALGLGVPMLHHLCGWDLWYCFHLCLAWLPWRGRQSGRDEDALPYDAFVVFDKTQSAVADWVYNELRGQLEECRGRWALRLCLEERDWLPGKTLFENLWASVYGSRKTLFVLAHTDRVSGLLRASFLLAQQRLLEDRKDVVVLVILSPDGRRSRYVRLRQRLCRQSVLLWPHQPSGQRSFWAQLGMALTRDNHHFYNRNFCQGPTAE

Toll-like receptor 9 [3] = molecular target: T3, Toll-like receptor 9 (Mus musculus, UniProt Q9EQU3); assay: Antagonist activity at TLR9 in mouse splenocytes assessed as inhibition of CpG1585-induced IL6 production; type: cell-based, Splenocyte
T3 sequence (Q9EQU3 whole entry): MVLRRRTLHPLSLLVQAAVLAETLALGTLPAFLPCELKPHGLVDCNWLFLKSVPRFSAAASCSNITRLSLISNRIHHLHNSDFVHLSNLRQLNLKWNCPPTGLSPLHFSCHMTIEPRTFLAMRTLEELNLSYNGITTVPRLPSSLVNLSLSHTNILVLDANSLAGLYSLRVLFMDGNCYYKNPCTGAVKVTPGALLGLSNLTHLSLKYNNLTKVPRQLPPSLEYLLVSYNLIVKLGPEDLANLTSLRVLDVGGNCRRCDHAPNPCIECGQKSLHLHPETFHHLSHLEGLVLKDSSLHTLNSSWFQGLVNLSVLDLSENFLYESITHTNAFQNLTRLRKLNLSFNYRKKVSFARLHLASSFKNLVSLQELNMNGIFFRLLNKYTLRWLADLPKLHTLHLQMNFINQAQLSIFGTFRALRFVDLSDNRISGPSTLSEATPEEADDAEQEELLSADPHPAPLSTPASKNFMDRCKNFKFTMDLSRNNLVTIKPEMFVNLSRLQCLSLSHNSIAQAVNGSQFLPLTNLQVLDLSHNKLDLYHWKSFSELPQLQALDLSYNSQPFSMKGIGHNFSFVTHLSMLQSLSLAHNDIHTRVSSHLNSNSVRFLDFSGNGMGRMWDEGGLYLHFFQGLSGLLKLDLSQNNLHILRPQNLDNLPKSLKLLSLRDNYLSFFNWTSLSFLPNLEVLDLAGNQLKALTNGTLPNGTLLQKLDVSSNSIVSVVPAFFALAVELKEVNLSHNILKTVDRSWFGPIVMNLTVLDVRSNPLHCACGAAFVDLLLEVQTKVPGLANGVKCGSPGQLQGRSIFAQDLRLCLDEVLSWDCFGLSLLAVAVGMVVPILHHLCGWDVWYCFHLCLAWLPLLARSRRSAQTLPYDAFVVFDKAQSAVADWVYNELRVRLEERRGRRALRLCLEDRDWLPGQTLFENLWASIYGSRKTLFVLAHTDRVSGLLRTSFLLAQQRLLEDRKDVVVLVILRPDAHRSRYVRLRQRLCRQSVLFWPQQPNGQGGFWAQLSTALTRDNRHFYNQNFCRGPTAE

[4] = Volume of distribution at steady state in BALB/c mouse at 5 mg/kg, iv; type: ADME, organism-based; settings: in vivo, read-out: Vdss
[5] = Oral bioavailability in BALB/c mouse at 20 mg/kg; type: ADME, organism-based; settings: in vivo
[6] = Drug uptake in 129Sv mouse at 30 mg/kg, ip measured after 2 hrs; type: ADME, organism-based; settings: in vivo, read-out: Drug uptake
[7] = Clearance in BALB/c mouse at 5 mg/kg, iv; type: ADME, organism-based; settings: in vivo
[8] = Terminal half life in BALB/c mouse at 5 mg/kg, iv; type: ADME, organism-based; settings: in vivo, read-out: beta t1/2 (converted)
[9] = Cmax in BALB/c mouse at 20 mg/kg, po; type: ADME, organism-based; set-up: route oral, dose 20 mg/kg; settings: in vivo
Toll-like receptor 8 = molecular target: T4, Toll-like receptor 8 (Homo sapiens, UniProt Q9NR97); assay: Antagonist activity at TLR8 in human THP-1 cells assessed as inhibition of resiquimod-induced TNFalpha production; type: cell-based
T4 sequence (Q9NR97 whole entry): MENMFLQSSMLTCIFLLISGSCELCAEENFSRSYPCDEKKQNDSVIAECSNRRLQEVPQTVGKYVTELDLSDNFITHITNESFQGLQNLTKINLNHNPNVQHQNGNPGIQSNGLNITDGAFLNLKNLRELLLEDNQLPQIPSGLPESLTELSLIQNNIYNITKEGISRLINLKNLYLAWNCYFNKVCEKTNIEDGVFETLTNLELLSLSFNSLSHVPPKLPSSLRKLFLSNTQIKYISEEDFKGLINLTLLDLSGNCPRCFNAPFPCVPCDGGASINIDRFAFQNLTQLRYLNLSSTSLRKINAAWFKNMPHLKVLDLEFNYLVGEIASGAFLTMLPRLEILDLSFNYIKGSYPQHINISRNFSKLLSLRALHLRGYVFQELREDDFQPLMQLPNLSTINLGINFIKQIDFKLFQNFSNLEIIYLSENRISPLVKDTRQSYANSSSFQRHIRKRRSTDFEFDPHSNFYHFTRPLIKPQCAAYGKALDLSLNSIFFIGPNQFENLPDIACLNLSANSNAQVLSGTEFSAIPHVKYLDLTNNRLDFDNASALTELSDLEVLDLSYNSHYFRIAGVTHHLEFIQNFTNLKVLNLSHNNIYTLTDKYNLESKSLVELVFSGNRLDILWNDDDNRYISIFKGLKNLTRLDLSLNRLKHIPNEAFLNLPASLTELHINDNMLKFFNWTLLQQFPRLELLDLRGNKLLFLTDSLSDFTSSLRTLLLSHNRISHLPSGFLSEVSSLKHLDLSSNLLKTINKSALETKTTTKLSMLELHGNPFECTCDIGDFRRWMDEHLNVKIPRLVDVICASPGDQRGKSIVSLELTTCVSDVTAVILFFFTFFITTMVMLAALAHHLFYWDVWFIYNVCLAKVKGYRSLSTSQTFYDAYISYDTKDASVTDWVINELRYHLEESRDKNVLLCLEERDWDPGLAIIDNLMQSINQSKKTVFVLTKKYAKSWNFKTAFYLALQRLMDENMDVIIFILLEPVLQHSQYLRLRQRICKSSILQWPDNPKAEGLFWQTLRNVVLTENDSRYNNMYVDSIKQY

[10] = AUC in BALB/c mouse at 20 mg/kg, po; type: ADME, organism-based; set-up: dose 20 mg/kg; settings: in vivo
Toll-like receptor 7 [11] = molecular target: T1, Toll-like receptor 7; assay: Antagonist activity at TLR7 in mouse P4H1 cells assessed as inhibition of imiquimod-induced IL6 production; type: cell-based

Row | SMILES | IC50 (Toll-like receptor 7 [1]) | IC50 (Toll-like receptor 9 [2]) | IC50 (Toll-like receptor 9 [3]) | Vd [4] | bioavailability [5] | concentration at 2 h [6] | clearance [7] | half-life [8] | Cmax [9] | IC50 (Toll-like receptor 8) | AUC [10] | IC50 (Toll-like receptor 7 [11])
1 | Cc1cc(-c2ccc(OCC34CCC(N)(CC3)CC4)c(F)c2)c2cnc(N)nn12 | 0.093 µM | 3.4 µM | 0.46 µM |  |  |  |  |  |  |  |  | 
2 | Cn1nc(-c2ccc(OCC3CCNCC3)c(F)c2)c2cnc(N)nc21 | 0.22 µM | 3.4 µM | 2 µM |  |  |  |  |  |  |  |  | 
3 | Cn1nc(-c2ccc(OCC34CCC(O)(CC3)CC4)c(F)c2)c2cnc(N)nc21 | 1.2 µM | 5.3 µM | 2.8 µM |  |  |  |  |  |  |  |  | 
4 | Cn1nc(-c2ccc(OCCCC3CCNCC3)c(F)c2)c2cnc(N)nc21 | 0.097 µM | 2.3 µM | 1.3 µM | 29 L/kg | 0% | 1.5 µM | 9.9 L/h/kg | 5.9 h |  |  |  | 
5 | Cn1nc(-c2ccc(OC[C@H]3CC[C@@H](N)CC3)c(F)c2)c2cnc(N)nc21 | 0.15 µM | 2.2 µM | 1.2 µM |  |  |  |  |  |  |  |  | 
6 | Cc1cc(-c2ccnc3[nH]ncc23)cnc1OCC12CCC(N)(CC1)CC2 | 0.004 µM | 1 µM | 1.2 µM | 5.1 L/kg | 75% |  | 1.38 L/h/kg | 4 h | 3.23 µM | < 0.001 µM | 29.6 µM·h | 
7 | CN1CCN(CCCOc2ccc(-c3nn(C)c4nc(N)ncc34)cc2F)CC1 | 2 µM |  | 2 µM |  |  |  |  |  |  |  |  | 0.17 µM
8 | Cn1nc(-c2ccc(OCC34CCC(N)(CC3)CC4)c(F)c2)c2cnc(N)nc21 | 0.038 µM | 2.7 µM | 0.84 µM | 15 L/kg | 36% |  | 5.88 L/h/kg | 4.1 h | 0.506 µM |  | 3.05 µM·h | 
